Source: US8115197B2, “Organic semiconductor material, organic semiconductor thin film and organic semiconductor device” (Sony Corporation, priority 2005, dated 2012)

Assay: dissolution into hexane solution at room temperature
Assay type: physicochemical
Protocol: Also, experiments were carried out in which the polyacene derivative of example 1, the polyacene derivative of example 2, the polyacene derivative of example 3 and the polyacene derivative of example 4 were respectively dissolved into hexane solution at room temperature. […] Also, the polyacene derivative of the inventive example 4 of which number of the substituents is less than that of the polyacene derivative of example 2 by four was dissolved into the hexane solution.

Row | solubility in hexane solution | Structure (SMILES)
1 | dissolved | CCCCc1c(C(=O)OC)c(C(=O)OC)c(CCCC)c2cc3c(CCCC)c4cc5c(CC)c(CC)c(CC)c(CC)c5cc4c(CCCC)c3cc12 [example 1, 2,3-bis methoxycarbonyl-1,4,6,13-tetrabutyl-8,9,10,11-tetraethyl pentacene]
2 | hardly dissolved | CCc1c(CC)c(CC)c2cc3c(CC)c4cc5c(CC)c(C(=O)OC)c(C(=O)OC)c(CC)c5cc4c(CC)c3cc2c1CC [example 2, 2,3-bis methoxycarbonyl-1,4,6,8,9,10,11 13-octaethyl pentacene]
3 | dissolved | CCCc1c(C(=O)OC)c(C(=O)OC)c(CCC)c2cc3c(CCC)c4cc5c(CC)c(CC)c(CC)c(CC)c5cc4c(CCC)c3cc12 [example 3, 2,3-bis methoxycarbonyl-8,9,10,11-tetra ethyl-1,4,6,13-tetra propyl pentacene]
4 | dissolved | CCCCc1c(C(=O)OC)c(C(=O)OC)c(CCCC)c2cc3c(CCCC)c4cc5ccccc5cc4c(CCCC)c3cc12 [example 4, 2,3-bis methoxycarbonyl-1,4,6,13-tetrabuyl pentacene]
